In PubChem BioAssay AID1963425 (Molecular Pharmacology Branch, DTP, NCI, 2024):

Tested on: 323965-272-R-J2-PDC complex spheroid growth, % test/control
Assay: Anticancer human tumor 323965-272-R-J2-PDC patient-derived pancreatic carcinoma cell line growth inhibition [Asc]
Conditions: for IC50: curve of first compound; for viability, T/C: stronger effect = lower value
In short: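 Spheroid model: tumor line + HUVEC + hMSC. Single agents and combinations; top conc. at/near clinical Cmax (10 microM if undetermined), half-log dilutions. DMSO stocks at 800-fold test concentration.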

[1] = second compound 0.00316 µM, first compound 0.00316 µM
[2] = second compound 0.00316 µM, first compound 0.01 µM
[3] = second compound 0.00316 µM, first compound 0.0316 µM
[4] = second compound 0.00316 µM, first compound 0.1 µM
[5] = second compound 0.00316 µM, first compound 0.316 µM
[6] = second compound 0.00316 µM, first compound 1 µM
[7] = second compound 0.01 µM, first compound 0.00316 µM
[8] = second compound 0.01 µM, first compound 0.01 µM
[9] = second compound 0.01 µM, first compound 0.0316 µM
[10] = second compound 0.01 µM, first compound 0.1 µM
[11] = second compound 0.01 µM, first compound 0.316 µM
[12] = second compound 0.01 µM, first compound 1 µM
[13] = second compound 0.0316 µM, first compound 0.00316 µM
[14] = second compound 0.0316 µM, first compound 0.01 µM
[15] = second compound 0.0316 µM, first compound 0.0316 µM
[16] = second compound 0.0316 µM, first compound 0.1 µM
[17] = second compound 0.0316 µM, first compound 0.316 µM
[18] = second compound 0.0316 µM, first compound 1 µM
[19] = second compound 0.1 µM, first compound 0.00316 µM
[20] = second compound 0.1 µM, first compound 0.01 µM
[21] = second compound 0.1 µM, first compound 0.0316 µM
[22] = second compound 0.1 µM, first compound 0.1 µM
[23] = second compound 0.1 µM, first compound 0.316 µM
[24] = second compound 0.1 µM, first compound 1 µM
[25] = second compound 0.316 µM, first compound 0.00316 µM
[26] = second compound 0.316 µM, first compound 0.01 µM
[27] = second compound 0.316 µM, first compound 0.0316 µM
[28] = second compound 0.316 µM, first compound 0.1 µM
[29] = second compound 0.316 µM, first compound 0.316 µM
[30] = second compound 0.316 µM, first compound 1 µM
[31] = second compound 1 µM, first compound 0.00316 µM
[32] = second compound 1 µM, first compound 0.01 µM
[33] = second compound 1 µM, first compound 0.0316 µM
[34] = second compound 1 µM, first compound 0.1 µM
[35] = second compound 1 µM, first compound 0.316 µM
[36] = second compound 1 µM, first compound 1 µM
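Note: compound exposure lasted 7 days starting three days after spheroid seeding.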
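Throughout, for viability, T/C: 100% = DMSO vehicle control wells with viability set relative to vehicle.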

CCN1CCN(Cc2ccc(Nc3ncc(F)c(-c4cc(F)c5nc(C)n(C(C)C)c5c4)n3)nc2)CC1 + CNC(C)C(=O)NC1CN(S(=O)(=O)c2cccc(S(=O)(=O)N3CCC4CCC(C(=O)NC(c5ccccc5)c5ccccc5)N4C(=O)C(NC(=O)C(C)NC)C3)c2)CCC2CCC(C(=O)NC(c3ccccc3)c3ccccc3)N2C1=O
IC50 (second compound 0.00316 µM): > 1000 nM
IC50 (second compound 0.01 µM): > 1000 nM
IC50 (second compound 0.0316 µM): > 1000 nM
IC50 (second compound 0.1 µM): > 1000 nM
IC50 (second compound 0.316 µM): > 1000 nM
IC50 (second compound 1 µM): > 1000 nM
viability, T/C [1]: 108%
viability, T/C [2]: 88.7%
viability, T/C [3]: 96.8%
viability, T/C [4]: 83.6%
viability, T/C [5]: 81.5%
viability, T/C [6]: 77.2%
viability, T/C [7]: 98.1%
viability, T/C [8]: 95%
viability, T/C [9]: 97.5%
viability, T/C [10]: 70%
viability, T/C [11]: 85.6%
viability, T/C [12]: 79%
viability, T/C [13]: 101%
viability, T/C [14]: 95.3%
viability, T/C [15]: 87.2%
viability, T/C [16]: 76.1%
viability, T/C [17]: 75%
viability, T/C [18]: 72.4%
viability, T/C [19]: 104%
viability, T/C [20]: 106%
viability, T/C [21]: 96.6%
viability, T/C [22]: 76.5%
viability, T/C [23]: 78.4%
viability, T/C [24]: 82.5%
viability, T/C [25]: 102%
viability, T/C [26]: 101%
viability, T/C [27]: 95.4%
viability, T/C [28]: 69.6%
viability, T/C [29]: 70.6%
viability, T/C [30]: 83.6%
viability, T/C [31]: 87.4%
viability, T/C [32]: 85.9%
viability, T/C [33]: 90.6%
viability, T/C [34]: 67.7%
viability, T/C [35]: 79.7%
viability, T/C [36]: 74.2%

O=C(c1ccc(F)c(F)c1Nc1ccc(I)cc1F)N1CC(O)([C@@H]2CCCCN2)C1 + CNC(C)C(=O)NC1CN(S(=O)(=O)c2cccc(S(=O)(=O)N3CCC4CCC(C(=O)NC(c5ccccc5)c5ccccc5)N4C(=O)C(NC(=O)C(C)NC)C3)c2)CCC2CCC(C(=O)NC(c3ccccc3)c3ccccc3)N2C1=O
IC50 (second compound 0.00316 µM): 97.8 nM
IC50 (second compound 0.01 µM): 77.1 nM
IC50 (second compound 0.0316 µM): 80.6 nM
IC50 (second compound 0.1 µM): 92.4 nM
IC50 (second compound 0.316 µM): 70.6 nM
IC50 (second compound 1 µM): 53.5 nM
viability, T/C [1]: 117%
viability, T/C [2]: 99.1%
viability, T/C [3]: 77.5%
viability, T/C [4]: 50.1%
viability, T/C [5]: 27.3%
viability, T/C [6]: 18.5%
viability, T/C [7]: 105%
viability, T/C [8]: 90.3%
viability, T/C [9]: 60.8%
viability, T/C [10]: 47.7%
viability, T/C [11]: 28.2%
viability, T/C [12]: 13.2%
viability, T/C [13]: 94.5%
viability, T/C [14]: 96.3%
viability, T/C [15]: 64.3%
viability, T/C [16]: 47.9%
viability, T/C [17]: 25.7%
viability, T/C [18]: 14.4%
viability, T/C [19]: 102%
viability, T/C [20]: 90.9%
viability, T/C [21]: 81.6%
viability, T/C [22]: 46.4%
viability, T/C [23]: 23.6%
viability, T/C [24]: 13.1%
viability, T/C [25]: 110%
viability, T/C [26]: 82.8%
viability, T/C [27]: 71.5%
viability, T/C [28]: 41.8%
viability, T/C [29]: 22%
viability, T/C [30]: 11.3%
viability, T/C [31]: 92.8%
viability, T/C [32]: 85.6%
viability, T/C [33]: 57.3%
viability, T/C [34]: 39%
viability, T/C [35]: 18.8%
viability, T/C [36]: 9.3%
